# Values of other authors as cited in US20050142123A1, “Water-dispersible coenzyme q10 dry powders” (priority 2002, published 2005).
# Columns and labels:
# [1] = administered orally
smiles,measurement,setting,value
"COC1=C(OC)C(=O)C(CC=C(C)CCC=C(C)CCC=C(C)CCC=C(C)CCC=C(C)CCC=C(C)CCC=C(C)CCC=C(C)CCC=C(C)CCC=C(C)C)=C(C)C1=O [Coenzyme Q-10, 6-Decaprenyl-2,3-dimethoxy-5-methyl-1,4-benzoquinone]",solubility in water,,practically insoluble in water
same,bioavailability,[1],poor
